Where a SMILES comes first, the peptide text is derived from it.
Legend:
Format in all cases: cell-based
N1E cells [1] = experiment: MALDI-TOF analysis of lysates from peptide-loaded cells; details: 500 nM peptide, 30 min at 37 °C, Triton X-100 lysate after trichloroacetic acid sedimentation, not quantitative
Description: About 10^6 cells (N1E cells) were exposed to 500 nM of DL18 peptide in normal culture media for 30 min at 37 °C. After exposure the cells were washed twice with PBS, lyzed with 1% Triton X-100 in distilled water and the proteins were sedimented with equal volume of 40% trichloroacetic acid. After centrifugation (9000g, 20 min) 20 μl of supernatant was applied on MALDI plate, mixed with solution of 2,5-dihydroxybenzoic acid and subjected for MALDI-TOF analysis.

R3 cells = experiment: Staurosporine-induced cell death, LIVE/DEAD staining; details: Staurosporine 100 nM, no peptide, average ± SEM
Description: (§1) N1E and R3 ([33-10ras3] (ATCC® CRL-2764™)) cells were grown to about 80% of confluency in 6-well plates covered with D-poly-lysine. Peptides (500 nM or 10 µM) were added to the cells 1 h before treatments. The tested apoptogenic treatments were: Staurosporine (100 nM, 18 h), serum withdraw (20 days for N1E cells and 5 days for R3 cells), heat shock (43 °C, 1 h plus overnight recovery), Camptothecin (10 μM, 18 h), H2O2 (100 μM, 18 h). After the treatment the cells were carefully washed with PBS and stained simultaneously with Calcein A and Ethidium homodimer-1 (LIVE/DEAD® Viability/Cytotoxicity Kit, LifeTechnologies) for 30 min at room temperature. Cells were photographed in an inverted microscope immediately after staining. Percentage of survived cells was calculated from 3 randomly selected fields of view; average cell death rate ± SEM was calculated using GraphPad Prism (version 6.0 h for MacOS, GraphPad Software, La Jolla, USA). Antibodies specific to cleaved Caspase-3 (Asp175) (Rabbit monoclonal 5A1E, CST) were used to visualize Caspase-3 activation in N1E cells by Western blotting.

N1E cells [2] = experiment: as above; details: overnight exposure to 100 nM Staurosporine, no peptide, average ± SEM
Description: as §1

N1E and R3 cells [3] = experiment: Camptothecin-induced apoptosis, LIVE/DEAD staining; details: Camptothecin 10 μM, 18 h, no peptide
Description: as §1

N1E and R3 cells [4] = experiment: Hydrogen peroxide induced apoptosis, LIVE/DEAD staining; details: H2O2 100 μM, 18 h, cells untreated with peptides; average ± SEM
Description: as §1

CC[C@@H](C)[C@@H](NC(=O)[C@@H](CCC(=O)O)NC(=O)[C@H](NC(=O)[C@@H](CC(=O)O)NC(=O)[C@@H](CO)NC(=O)CNC(=O)[C@H](N)[C@H](C)O)[C@H](C)O)C(=O)NCC(=O)N[C@@H](CCCNC(=N)N)C(=O)N[C@@H](CCCCN)C(=O)N[C@@H](CCCCN)C(=O)N[C@@H](CCCNC(=N)N)C(=O)N[C@@H](CCCNC(=N)N)C(=O)N[C@@H](CCC(N)=O)C(=O)N[C@@H](CCCNC(=N)N)C(=O)N[C@@H](CCCNC(=N)N)C(=O)N[C@@H](CCCNC(=N)N)C(=O)NCC(=O)O [DL18] (HELM PEPTIDE1{[dT].G.[dS].[dD].[dT].[dE].[dI].G.R.K.K.R.R.Q.R.R.R.G}$$$$V2.0)
dynamics of cellular catabolism of the peptide (prevalence of non-metabolized m/z 2158 peak) (N1E cells [1]): not considerable

CN[C@@H]1C[C@H]2O[C@@](C)([C@@H]1OC)n1c3ccccc3c3c4c(c5c6ccccc6n2c5c31)C(=O)NC4 [Staurosporine]
dead cells (R3 cells): 15.33 ± 3.76% | cell death (N1E cells [2]): 89.67 ± 5.04%

CC[C@@]1(O)C(=O)OCc2c1cc1n(c2=O)Cc2cc3ccccc3nc2-1 [Camptothecin]
apoptosis induction (N1E and R3 cells [3]): induces apoptosis in limited number of cells

OO [H2O2, hydrogen peroxide]
dead cells (N1E and R3 cells [4]): 84.8 ± 4.28%

— article PMC6642484, “Cell penetrating caspase substrates promote survival of the transplanted cells” (BMC Research Notes, 2019)
